Experiment: Solubility of additive in water
Type: physicochemical
Details: 100 ml of pure water at 25° C.
Protocol: The amount of the additive dissolving in 100 ml of pure water at 25° C. was measured and evaluated according to the following criteria.

SMILES	Solubility in water
O=C1NNC(=O)C1c1ccccc1 [2-1]	A (The amount of the additive dissolving in 100 ml of pure water was equal to or greater than 3 g and less than 5 g.)
CC(C)C1C(=O)NNC1=O [2-3]	A (The amount of the additive dissolving in 100 ml of pure water was equal to or greater than 3 g and less than 5 g.)
CC(=O)C(Cc1ccccc1S(=O)(=O)[O-])C(=O)c1ccccc1.[Na+] (stereo not drawn) [3-2]	A+ (The amount of the additive dissolving in 100 ml of pure water was equal to or greater than 5 g.)
CC1(C)CC(=O)C(Cc2ccccc2S(=O)(=O)O)C(=O)C1 [3-3]	A+ (The amount of the additive dissolving in 100 ml of pure water was equal to or greater than 5 g.)
O=C1c2ccccc2C(=O)C1Cc1ccccc1S(=O)(=O)O [3-4]	A+ (The amount of the additive dissolving in 100 ml of pure water was equal to or greater than 5 g.)
O=C1C(Cc2ccccc2S(=O)(=O)[O-])C(=O)N(c2ccccc2)N1c1ccccc1.[Na+] [3-6]	A+ (The amount of the additive dissolving in 100 ml of pure water was equal to or greater than 5 g.)
CN1C(=O)C(Cc2ccccc2S(=O)(=O)[O-])C(=O)c2ccccc21.[Na+] (stereo not drawn) [3-7]	A+ (The amount of the additive dissolving in 100 ml of pure water was equal to or greater than 5 g.)
O=C1Nc2ccccc2NC(=O)C1Cc1ccc(S(=O)(=O)[O-])cc1S(=O)(=O)O.[Na+] [3-8]	A+ (The amount of the additive dissolving in 100 ml of pure water was equal to or greater than 5 g.)
O=C1C(Cc2ccc(S(=O)(=O)[O-])cc2S(=O)(=O)O)C(=O)N2CCCCN12.[Na+] [3-9]	A+ (The amount of the additive dissolving in 100 ml of pure water was equal to or greater than 5 g.)
O=C1CN(c2ccccc2)C(=O)C1Cc1ccccc1S(=O)(=O)O (stereo not drawn) [3-10]	A+ (The amount of the additive dissolving in 100 ml of pure water was equal to or greater than 5 g.)
O=Cc1ccc(CC2C(=O)N(c3ccccc3)N(c3ccc(S(=O)(=O)[O-])cc3)C2=O)cc1.[Na+] (stereo not drawn) [5-1]	A+ (The amount of the additive dissolving in 100 ml of pure water was equal to or greater than 5 g.)
O=CC1C(=O)N(c2ccccc2)N(c2ccc(S(=O)(=O)[O-])cc2)C1=O.[Na+] (stereo not drawn) [5-5]	A+ (The amount of the additive dissolving in 100 ml of pure water was equal to or greater than 5 g.)
O=C1NC(=O)N(Cc2ccccc2)C(=O)C1c1ccccc1 (stereo not drawn) [Organic acid 1, reference compound]	C (The amount of the additive dissolving in 100 ml of pure water was less than 1 g.)
Nc1c(F)c(F)c(C(=O)O)c(F)c1F [Organic acid 2, reference compound]	A (The amount of the additive dissolving in 100 ml of pure water was equal to or greater than 3 g and less than 5 g.)
[Cl-].[Cl-].[Zn+2] [ZnCl2, reference compound]	A+ (The amount of the additive dissolving in 100 ml of pure water was equal to or greater than 5 g.)
